# In ChEMBL document CHEMBL4229542 (Bioorg Med Chem Lett, 2018):
# Legend:
# [1] = Permeability from apical to basolateral side in human Caco2 cells; type: ADME, cell-based; conditions: Caco-2, read-out: permeability
# [2] = Intrinsic clearance in human liver microsomes assessed per mg protein; type: ADME, microsome; conditions: read-out: CLH
# [3] = Intrinsic clearance in mouse liver microsomes assessed per mg protein; type: ADME, microsome; conditions: read-out: CLH
# [4] = Intrinsic clearance in rat liver microsomes assessed per mg protein; type: ADME, microsome; conditions: read-out: CLH
# [5] = Fraction unbound in human plasma; type: ADME, cell-free
# [6] = Fraction unbound in mouse plasma; type: ADME, cell-free
# [7] = Fraction unbound in rat plasma; type: ADME, cell-free
# Cytochrome P450 2B6 = target: T1, Cytochrome P450 2B6 (Homo sapiens, UniProt P20813); assay: Inhibition of CYP2B6 (unknown origin); type: ADME
# T1 sequence (P20813 whole entry): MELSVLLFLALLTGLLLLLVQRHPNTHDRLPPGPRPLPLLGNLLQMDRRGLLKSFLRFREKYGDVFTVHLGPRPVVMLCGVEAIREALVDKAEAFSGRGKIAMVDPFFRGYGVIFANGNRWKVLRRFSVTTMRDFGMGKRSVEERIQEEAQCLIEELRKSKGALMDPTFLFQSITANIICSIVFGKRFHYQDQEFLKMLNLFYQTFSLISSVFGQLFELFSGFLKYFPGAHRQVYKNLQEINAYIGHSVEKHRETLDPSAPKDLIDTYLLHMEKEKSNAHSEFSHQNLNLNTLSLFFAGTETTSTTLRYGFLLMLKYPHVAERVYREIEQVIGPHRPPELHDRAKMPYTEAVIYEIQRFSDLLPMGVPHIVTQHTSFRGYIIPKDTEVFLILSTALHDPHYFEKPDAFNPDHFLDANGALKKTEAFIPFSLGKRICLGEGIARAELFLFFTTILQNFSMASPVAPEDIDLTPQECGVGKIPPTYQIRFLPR
# Cytochrome P450 2C19 = Cytochrome P450 2C19 (Homo sapiens, UniProt P33261); assay: Inhibition of CYP2C19 (unknown origin); type: ADME
# Sequence of Cytochrome P450 2C19 (P33261 whole entry): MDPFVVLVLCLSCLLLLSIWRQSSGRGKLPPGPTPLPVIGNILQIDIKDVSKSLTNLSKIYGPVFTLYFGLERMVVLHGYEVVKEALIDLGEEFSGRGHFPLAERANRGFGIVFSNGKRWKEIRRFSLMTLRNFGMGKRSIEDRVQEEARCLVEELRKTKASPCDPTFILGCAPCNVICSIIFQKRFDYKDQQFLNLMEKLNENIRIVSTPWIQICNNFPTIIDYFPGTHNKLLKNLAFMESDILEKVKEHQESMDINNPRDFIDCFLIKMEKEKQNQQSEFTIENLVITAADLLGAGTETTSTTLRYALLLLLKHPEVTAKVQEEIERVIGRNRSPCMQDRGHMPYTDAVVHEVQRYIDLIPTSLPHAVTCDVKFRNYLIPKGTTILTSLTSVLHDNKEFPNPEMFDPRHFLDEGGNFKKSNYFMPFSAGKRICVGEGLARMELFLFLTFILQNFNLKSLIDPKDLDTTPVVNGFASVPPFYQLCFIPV
# Cytochrome P450 2C9 = Cytochrome P450 2C9 (Homo sapiens, UniProt P11712); assay: Inhibition of CYP2C9 (unknown origin); type: ADME
# Sequence of Cytochrome P450 2C9 (P11712 whole entry): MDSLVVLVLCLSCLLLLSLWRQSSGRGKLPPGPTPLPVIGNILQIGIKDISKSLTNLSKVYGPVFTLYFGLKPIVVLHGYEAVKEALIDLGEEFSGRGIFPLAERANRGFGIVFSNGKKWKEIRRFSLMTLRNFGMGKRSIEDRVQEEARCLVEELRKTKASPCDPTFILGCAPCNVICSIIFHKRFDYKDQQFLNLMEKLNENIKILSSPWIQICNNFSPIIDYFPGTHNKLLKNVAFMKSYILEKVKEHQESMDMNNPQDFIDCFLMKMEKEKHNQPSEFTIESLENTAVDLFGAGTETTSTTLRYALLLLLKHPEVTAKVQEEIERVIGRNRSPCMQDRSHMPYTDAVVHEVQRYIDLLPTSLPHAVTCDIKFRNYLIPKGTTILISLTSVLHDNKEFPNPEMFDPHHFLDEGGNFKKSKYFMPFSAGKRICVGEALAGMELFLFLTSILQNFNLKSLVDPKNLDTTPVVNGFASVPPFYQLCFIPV
# Cytochrome P450 3A4 = Cytochrome P450 3A4 (Homo sapiens, UniProt P08684); assay: Inhibition of CYP3A4 (unknown origin); type: ADME
# Sequence of Cytochrome P450 3A4 (P08684 whole entry): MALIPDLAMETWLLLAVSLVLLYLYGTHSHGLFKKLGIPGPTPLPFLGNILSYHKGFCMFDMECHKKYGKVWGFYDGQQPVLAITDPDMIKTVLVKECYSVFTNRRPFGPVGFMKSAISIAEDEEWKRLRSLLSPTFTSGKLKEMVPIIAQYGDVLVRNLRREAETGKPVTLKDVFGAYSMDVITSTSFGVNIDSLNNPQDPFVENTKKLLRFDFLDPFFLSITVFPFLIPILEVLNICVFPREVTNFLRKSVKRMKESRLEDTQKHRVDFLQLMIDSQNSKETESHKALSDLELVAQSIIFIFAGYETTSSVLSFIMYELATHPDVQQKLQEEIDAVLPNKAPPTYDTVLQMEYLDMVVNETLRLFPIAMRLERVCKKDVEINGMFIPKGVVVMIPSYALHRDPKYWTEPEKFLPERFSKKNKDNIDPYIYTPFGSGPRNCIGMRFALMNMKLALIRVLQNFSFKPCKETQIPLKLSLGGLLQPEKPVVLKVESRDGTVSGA
# [8] = Half life in rat at 0.5 mg/kg, po; type: ADME, organism-based; conditions: in vivo
# [9] = Oral bioavailability in rat at 0.5 mg/kg; type: ADME, organism-based; conditions: in vivo
# EGFR = EGFR (Homo sapiens, UniProt P00533); assay: Inhibition of EGFR (unknown origin) at 1 uM relative to control
# Sequence of EGFR (P00533 whole entry): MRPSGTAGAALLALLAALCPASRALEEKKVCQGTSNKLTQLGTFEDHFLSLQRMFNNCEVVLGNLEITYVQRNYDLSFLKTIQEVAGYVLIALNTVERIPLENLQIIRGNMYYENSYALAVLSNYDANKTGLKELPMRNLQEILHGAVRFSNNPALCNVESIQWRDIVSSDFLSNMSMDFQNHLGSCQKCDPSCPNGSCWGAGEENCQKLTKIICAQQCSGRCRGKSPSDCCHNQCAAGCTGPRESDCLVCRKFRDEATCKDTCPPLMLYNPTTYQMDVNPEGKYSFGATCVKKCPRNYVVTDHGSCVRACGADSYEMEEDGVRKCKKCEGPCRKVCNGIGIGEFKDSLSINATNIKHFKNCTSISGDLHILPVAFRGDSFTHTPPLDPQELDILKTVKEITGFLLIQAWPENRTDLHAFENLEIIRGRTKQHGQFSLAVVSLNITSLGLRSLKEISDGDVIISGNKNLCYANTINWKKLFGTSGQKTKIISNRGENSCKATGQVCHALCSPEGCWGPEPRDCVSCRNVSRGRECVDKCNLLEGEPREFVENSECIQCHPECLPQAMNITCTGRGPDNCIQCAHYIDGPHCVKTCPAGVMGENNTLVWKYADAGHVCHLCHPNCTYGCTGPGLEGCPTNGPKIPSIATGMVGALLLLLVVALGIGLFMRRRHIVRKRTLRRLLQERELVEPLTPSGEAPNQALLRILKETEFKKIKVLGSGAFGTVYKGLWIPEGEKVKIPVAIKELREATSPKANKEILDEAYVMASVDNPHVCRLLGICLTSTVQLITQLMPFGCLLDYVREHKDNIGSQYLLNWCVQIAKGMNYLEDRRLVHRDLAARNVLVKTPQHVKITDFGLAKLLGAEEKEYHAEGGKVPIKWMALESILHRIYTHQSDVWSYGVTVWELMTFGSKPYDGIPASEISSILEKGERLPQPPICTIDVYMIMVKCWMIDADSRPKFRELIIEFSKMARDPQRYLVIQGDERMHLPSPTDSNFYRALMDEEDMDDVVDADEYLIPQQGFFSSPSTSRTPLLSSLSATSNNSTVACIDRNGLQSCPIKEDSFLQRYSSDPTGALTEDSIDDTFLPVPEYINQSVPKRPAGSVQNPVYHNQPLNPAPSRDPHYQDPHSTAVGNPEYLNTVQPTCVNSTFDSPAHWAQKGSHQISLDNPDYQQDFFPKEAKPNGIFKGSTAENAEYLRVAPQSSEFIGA
# [10] = target: Voltage-gated inwardly rectifying potassium channel KCNH2 (Homo sapiens, UniProt Q12809); assay: Binding affinity to human ERG
# Sequence of Voltage-gated inwardly rectifying potassium channel KCNH2 (Q12809 whole entry): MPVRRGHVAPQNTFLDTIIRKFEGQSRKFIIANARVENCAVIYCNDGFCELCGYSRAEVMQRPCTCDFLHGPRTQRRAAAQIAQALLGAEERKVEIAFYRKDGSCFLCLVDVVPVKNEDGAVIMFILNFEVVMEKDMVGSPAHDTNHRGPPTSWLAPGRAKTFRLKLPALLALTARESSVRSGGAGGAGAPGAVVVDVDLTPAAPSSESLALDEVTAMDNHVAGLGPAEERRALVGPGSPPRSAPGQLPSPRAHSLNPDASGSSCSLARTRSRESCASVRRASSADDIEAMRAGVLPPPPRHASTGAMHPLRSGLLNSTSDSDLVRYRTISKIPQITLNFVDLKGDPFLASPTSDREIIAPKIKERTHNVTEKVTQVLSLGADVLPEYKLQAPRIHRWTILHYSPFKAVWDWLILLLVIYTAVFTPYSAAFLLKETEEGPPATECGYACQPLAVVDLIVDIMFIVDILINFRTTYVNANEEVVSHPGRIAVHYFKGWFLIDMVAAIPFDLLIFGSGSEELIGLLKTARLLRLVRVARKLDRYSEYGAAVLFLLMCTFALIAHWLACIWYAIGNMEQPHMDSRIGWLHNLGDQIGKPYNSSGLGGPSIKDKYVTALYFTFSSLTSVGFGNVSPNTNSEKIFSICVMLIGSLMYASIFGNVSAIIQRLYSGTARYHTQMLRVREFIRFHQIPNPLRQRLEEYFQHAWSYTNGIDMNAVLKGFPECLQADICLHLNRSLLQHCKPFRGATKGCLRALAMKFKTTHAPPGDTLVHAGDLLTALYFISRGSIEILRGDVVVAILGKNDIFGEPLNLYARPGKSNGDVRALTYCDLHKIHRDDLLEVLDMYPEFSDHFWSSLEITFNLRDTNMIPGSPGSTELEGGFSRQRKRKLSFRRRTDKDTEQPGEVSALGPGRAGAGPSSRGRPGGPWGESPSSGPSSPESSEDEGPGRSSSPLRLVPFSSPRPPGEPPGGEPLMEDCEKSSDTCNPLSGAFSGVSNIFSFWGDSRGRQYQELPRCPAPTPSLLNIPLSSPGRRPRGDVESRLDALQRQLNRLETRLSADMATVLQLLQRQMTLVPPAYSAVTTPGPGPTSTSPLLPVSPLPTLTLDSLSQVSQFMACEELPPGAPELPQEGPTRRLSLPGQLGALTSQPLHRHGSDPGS
# Cytochrome P450 2C8 = target: T2, Cytochrome P450 2C8 (Homo sapiens, UniProt P10632); assay: Inhibition of CYP2C8 (unknown origin); type: ADME
# T2 sequence (P10632 whole entry): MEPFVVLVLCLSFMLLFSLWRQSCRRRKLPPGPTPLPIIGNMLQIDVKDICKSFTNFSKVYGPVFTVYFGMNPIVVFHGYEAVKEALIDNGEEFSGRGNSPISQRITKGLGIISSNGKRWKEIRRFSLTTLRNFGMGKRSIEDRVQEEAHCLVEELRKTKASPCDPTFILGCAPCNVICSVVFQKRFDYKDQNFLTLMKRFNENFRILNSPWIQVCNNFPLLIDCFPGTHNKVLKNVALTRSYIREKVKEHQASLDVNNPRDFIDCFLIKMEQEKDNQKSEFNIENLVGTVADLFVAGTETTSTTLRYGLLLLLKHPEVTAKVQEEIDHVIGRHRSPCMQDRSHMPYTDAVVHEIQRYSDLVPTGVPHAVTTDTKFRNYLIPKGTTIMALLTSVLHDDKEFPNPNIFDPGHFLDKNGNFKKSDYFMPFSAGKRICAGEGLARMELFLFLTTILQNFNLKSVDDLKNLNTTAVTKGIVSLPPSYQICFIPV
# [11] = Clearance in rat at 0.5 mg/kg, po; conditions: in vivo
# Rattus norvegicus = assay: Volume of distribution at steady state in rat at 0.5 mg/kg, po; type: ADME, organism-based; conditions: in vivo
# [12] = target: Tyrosine-protein kinase Blk (Homo sapiens) (UniProt P51451); assay: Inhibition of Blk (unknown origin) at 1 uM relative to control
# Sequence of Tyrosine-protein kinase Blk (Homo sapiens) (P51451 2-505 limits assumed): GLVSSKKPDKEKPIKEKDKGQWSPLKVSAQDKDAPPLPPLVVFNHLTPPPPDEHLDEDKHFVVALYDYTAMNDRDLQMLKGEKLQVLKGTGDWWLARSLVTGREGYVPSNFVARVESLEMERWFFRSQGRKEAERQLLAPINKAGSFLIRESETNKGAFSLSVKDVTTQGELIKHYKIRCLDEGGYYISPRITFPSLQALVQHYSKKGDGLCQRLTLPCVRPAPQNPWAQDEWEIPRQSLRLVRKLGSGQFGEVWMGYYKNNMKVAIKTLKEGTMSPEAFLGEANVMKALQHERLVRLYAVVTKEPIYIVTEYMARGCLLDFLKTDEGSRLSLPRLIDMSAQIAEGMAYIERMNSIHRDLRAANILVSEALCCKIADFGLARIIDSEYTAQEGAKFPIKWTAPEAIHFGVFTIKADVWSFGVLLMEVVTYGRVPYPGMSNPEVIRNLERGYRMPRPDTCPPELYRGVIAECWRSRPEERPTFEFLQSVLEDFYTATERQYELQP
# [13] = target: T3, Cytoplasmic tyrosine-protein kinase BMX (Homo sapiens) (UniProt P51813); assay: Inhibition of BMX (unknown origin) at 1 uM relative to control
# T3 sequence (whole entry): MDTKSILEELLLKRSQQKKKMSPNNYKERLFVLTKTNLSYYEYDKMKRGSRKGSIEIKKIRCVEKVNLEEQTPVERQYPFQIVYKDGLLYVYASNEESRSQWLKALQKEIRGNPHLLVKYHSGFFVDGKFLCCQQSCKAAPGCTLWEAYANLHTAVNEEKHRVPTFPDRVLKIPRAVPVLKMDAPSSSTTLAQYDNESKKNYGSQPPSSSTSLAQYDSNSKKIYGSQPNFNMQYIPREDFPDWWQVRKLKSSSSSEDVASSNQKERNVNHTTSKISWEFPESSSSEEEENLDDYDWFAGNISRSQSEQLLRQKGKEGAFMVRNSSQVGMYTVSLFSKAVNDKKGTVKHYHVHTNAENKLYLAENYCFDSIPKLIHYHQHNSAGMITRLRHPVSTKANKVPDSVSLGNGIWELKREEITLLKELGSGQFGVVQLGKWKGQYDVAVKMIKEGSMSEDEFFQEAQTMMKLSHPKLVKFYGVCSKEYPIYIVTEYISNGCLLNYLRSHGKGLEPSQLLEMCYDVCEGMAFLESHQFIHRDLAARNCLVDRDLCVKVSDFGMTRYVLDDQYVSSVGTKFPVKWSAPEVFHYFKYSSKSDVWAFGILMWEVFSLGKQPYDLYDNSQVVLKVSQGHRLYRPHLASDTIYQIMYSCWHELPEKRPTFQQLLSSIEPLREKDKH
# [14] = target: T4, Tyrosine-protein kinase TXK (Homo sapiens) (UniProt P42681); assay: Inhibition of TXK (unknown origin) at 1 uM relative to control
# T4 sequence (whole entry): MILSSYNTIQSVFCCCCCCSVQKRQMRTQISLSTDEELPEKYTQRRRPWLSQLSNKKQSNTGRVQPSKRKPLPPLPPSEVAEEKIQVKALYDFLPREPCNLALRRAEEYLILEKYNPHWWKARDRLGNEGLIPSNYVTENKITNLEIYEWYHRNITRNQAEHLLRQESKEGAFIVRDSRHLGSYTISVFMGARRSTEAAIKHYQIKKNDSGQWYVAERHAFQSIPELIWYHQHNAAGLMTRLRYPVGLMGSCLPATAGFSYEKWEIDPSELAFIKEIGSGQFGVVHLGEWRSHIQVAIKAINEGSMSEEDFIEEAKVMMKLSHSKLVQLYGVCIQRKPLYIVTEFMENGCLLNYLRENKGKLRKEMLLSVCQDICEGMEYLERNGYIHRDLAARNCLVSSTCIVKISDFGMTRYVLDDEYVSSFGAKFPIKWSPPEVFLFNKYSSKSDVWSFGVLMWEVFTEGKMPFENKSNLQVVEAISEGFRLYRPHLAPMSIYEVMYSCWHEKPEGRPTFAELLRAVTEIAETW
# [15] = target: Tyrosine-protein kinase BTK (Homo sapiens, UniProt Q06187); assay: Inhibition of BTK (unknown origin)
# Sequence of Tyrosine-protein kinase BTK (Q06187 whole entry): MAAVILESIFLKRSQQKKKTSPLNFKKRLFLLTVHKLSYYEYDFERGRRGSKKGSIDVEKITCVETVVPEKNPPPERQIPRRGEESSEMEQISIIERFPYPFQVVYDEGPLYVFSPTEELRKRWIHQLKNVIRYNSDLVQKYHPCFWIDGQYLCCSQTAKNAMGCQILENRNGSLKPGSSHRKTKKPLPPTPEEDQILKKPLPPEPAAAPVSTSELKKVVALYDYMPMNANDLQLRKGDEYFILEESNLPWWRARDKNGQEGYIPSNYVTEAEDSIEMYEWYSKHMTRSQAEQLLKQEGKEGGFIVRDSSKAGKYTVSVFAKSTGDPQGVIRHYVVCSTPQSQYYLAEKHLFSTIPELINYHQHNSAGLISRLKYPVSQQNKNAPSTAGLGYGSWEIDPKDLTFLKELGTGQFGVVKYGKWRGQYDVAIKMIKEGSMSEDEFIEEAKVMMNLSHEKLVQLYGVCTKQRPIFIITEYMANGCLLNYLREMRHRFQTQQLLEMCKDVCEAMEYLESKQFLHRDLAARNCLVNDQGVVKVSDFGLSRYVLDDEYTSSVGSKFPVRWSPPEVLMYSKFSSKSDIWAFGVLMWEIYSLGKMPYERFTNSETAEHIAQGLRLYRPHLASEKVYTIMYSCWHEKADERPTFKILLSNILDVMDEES
Papp A→B [1] [×10⁻⁶ cm/s],microsomal CLint [2] [µL/min/mg],microsomal CLint [3] [µL/min/mg],microsomal CLint [4] [µL/min/mg],SMILES,other results
3,125,228,254,C=CC(=O)N1CC[C@H](Nc2ccc(C(N)=O)c(Oc3ccc(Oc4ccccc4)cc3)n2)C1,
,309,488,1000,C=CC(=O)N[C@@H]1CCCN(c2ccc(C(N)=O)c(Oc3ccc(Oc4ccccc4)cc3)n2)C1,
13,< 10,18,97,C=CC(=O)N1CCN(c2ccc(C(N)=O)c(Oc3ccc(Oc4ccccc4)cc3)n2)CC1,
6.7 to 6.8,74,62,203,C=CC(=O)N1C[C@@H]2C[C@H]1CN2c1ccc(C(N)=O)c(Oc2ccc(Oc3ccccc3)cc2)n1,fraction unbound [5]: 0.0046; fraction unbound [6]: 0.002; fraction unbound [7]: 0.0031; Ki [10]: 2.2 µM; IC50 (Cytochrome P450 2C8): 0.1 µM; CL/F [11]: 20.7 mL/min/kg; Vdss (Rattus norvegicus): 0.86 L/kg; half-life [8]: 43.2 min; bioavailability [9]: 47%; inhibition [12]: 96%; inhibition [13]: 95%; inhibition [14]: 54%
,,,,C=CC(=O)N[C@H]1CCN(c2ccc(C(N)=O)c(Oc3ccc(C(=O)N4CCOCC4)cc3)n2)C1,IC50 [15]: 10 µM
14,10,27,21,C=CC(=O)N[C@H]1CCN(c2ccc(C(N)=O)c(Oc3ccc(Oc4ccccc4)cc3)n2)C1,
8,33,472,148,C=CC(=O)N1C[C@H]2C[C@@H]1CN2c1ccc(C(N)=O)c(Oc2ccc(Oc3ccccc3)cc2)n1,
,140,562,302,C=CC(=O)NCC1CCCN(c2ccc(C(N)=O)c(Oc3ccc(Oc4ccccc4)cc3)n2)C1 (configuration not stated),
10,156,191,136,C=CC(=O)N1CC[C@@H](Nc2ccc(C(N)=O)c(Oc3ccc(Oc4ccccc4)cc3)n2)C1,
,,,,C=CC(=O)N[C@H]1CCN(c2ccc(C(N)=O)c(Nc3ccc(C(=O)N4CCOCC4)cc3)n2)C1,IC50 [15]: 0.0016 µM

SMILES,Papp A→B [1] [×10⁻⁶ cm/s],microsomal CLint [2] [µL/min/mg],microsomal CLint [3] [µL/min/mg],microsomal CLint [4] [µL/min/mg],other results
C=CC(=O)N1CCC[C@@H](n2nc(-c3ccc(Oc4ccccc4)cc3)c3c(N)ncnc32)C1 [IBRUTINIB],7.2,,,,fraction unbound [5]: 0.025; fraction unbound [6]: 0.017; fraction unbound [7]: 0.02; IC50 (Cytochrome P450 2B6): 11.1 µM; IC50 (Cytochrome P450 2C19): 19 µM; IC50 (Cytochrome P450 2C9): 8.5 µM; IC50 (Cytochrome P450 3A4): 11 µM; half-life [8]: 30 min; bioavailability [9]: 12%; inhibition at 1 µM (EGFR): > 50%
C=CC(=O)N1C2CC1CN(c1ccc(C(N)=O)c(Oc3ccc(Oc4ccccc4)cc3)n1)C2,,49,647,167,
C=CC(=O)N1C2CCC1CN(c1ccc(C(N)=O)c(Oc3ccc(Oc4ccccc4)cc3)n1)C2,0.6,106,315,145,
